Series [1] deals with Calu-3 cell line.
In series [2] the target is ACE2 (Homo sapiens, UniProt Q9BYF1). As to the kind of experiment: In vitro fluorescence ligand binding assay (relative ACE2 inhibition). To be noted: for remaining activity at 100 µM: read-out: % of control/blank fluorescence; for IC50: fluorescence binding assay, relative ACE2 inhibition. On the procedure: A fluorescence ligand bind assay (Lora Benoit, Vinayak Shenoy, Simon Meykler, Ali Mohseni. SARS-COV-2 spike protein 13-mer subdomain corresponds to the drug-binding domain of glutamyl-propyl-tRNA synthetase 1 and is targetable by halofuginone, 22 Jul. 2021, PREPRINT (Version 1) available at Research Square [world wide web at doi.org/10.21203/rs.3.rs-738132/v1]) used to test the binding of various flavonoids. Fluorescence values increased over time (likely due to evaporation at 37° C.), but differences in fluorescence intensity after a kinetic read may be used to calculate relative ACE2 inhibition.

The target of series [3] is T1, SARS-COV-2 spike protein (Severe acute respiratory syndrome coronavirus 2, UniProt P0DTC2).
T1 construct: Target/ligand: SARS-COV2 RBD; 4815 RU captured; purchased R&D Systems, Inc., Minneapolis, MN AVI10500
Put plainly: Surface plasmon resonance (SPR) analysis. The series is classed as binding. Conditions: for Activity (actual) / Activity (calculated) / Rmax (actual) / Rmax (calculated): SPR, analyte 0.4-100 μM, SCK; for Rmax (actual) / Rmax (calculated): 25° C.

[4] abbreviates: SPR FIG. 15A, 50 μM, SARS-COV2 RBD on SA chip.

Chain of ACE2 (Q9BYF1 18-805): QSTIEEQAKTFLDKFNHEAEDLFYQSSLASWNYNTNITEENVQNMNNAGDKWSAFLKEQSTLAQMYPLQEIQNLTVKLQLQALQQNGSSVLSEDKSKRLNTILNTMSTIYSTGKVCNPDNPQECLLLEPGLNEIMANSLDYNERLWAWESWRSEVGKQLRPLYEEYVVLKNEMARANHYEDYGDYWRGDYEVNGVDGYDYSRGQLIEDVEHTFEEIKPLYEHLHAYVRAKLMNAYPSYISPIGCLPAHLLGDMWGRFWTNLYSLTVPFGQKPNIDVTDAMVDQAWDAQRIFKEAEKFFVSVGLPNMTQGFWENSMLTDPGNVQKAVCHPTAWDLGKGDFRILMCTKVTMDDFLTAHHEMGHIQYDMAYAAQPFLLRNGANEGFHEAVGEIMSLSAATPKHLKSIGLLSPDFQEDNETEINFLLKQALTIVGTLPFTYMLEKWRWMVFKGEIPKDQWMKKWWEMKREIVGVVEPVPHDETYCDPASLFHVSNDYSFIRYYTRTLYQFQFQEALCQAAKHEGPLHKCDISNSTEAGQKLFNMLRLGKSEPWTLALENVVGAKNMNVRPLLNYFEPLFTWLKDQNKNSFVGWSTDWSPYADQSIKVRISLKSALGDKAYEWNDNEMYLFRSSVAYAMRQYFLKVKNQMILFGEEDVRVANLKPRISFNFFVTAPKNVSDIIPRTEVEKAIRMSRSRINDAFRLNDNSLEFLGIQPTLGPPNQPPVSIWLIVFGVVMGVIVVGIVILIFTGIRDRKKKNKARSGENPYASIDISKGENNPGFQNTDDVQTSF

In the case of `COc1ccc(C[C@H](N)C(=O)N[C@H]2[C@@H](O)[C@H](n3cnc4c(N(C)C)ncnc43)O[C@@H]2CO)cc1` [Puromycin, puromycin, reference compound], the “Percent viable cells (%) normalized to vehicle control and puromycin” value in series [1] (human) is recorded as 0.00%.
`COc1ccc(C2CC(=O)c3c(O)cc(O)cc3O2)cc1O` (stereo not drawn) [hesperetin]: the “Calu-3 viability after compound + SARS-COV-2 spike protein treatment, in words” value in series [1] is recorded as “decrease of viability in a hesperetin concentration-dependent manner”.
With `COc1ccc(-c2cc(=O)c3c(OC)c(OC)c(OC)c(OC)c3o2)cc1OC` [nobiletin], in series [2], the remaining activity at 100 µM is 60% and the IC50 was found to be 26.5 µM.
With hesperidin, in series [3] (setting [4]), the “Activity (50 μM)” value was determined as 98% and the “Rmax (50 μM)” value stood at 94.3 RU. For the same molecule, in series [3] (SARS-COV2 RBD on SA chip), the “Activity (actual)” value was determined as 72%, the “Activity (calculated)” value is given as 40%, the “Rmax (actual)” value is 72.7 RU and the “Rmax (calculated)” value is 40.4 RU. In addition, the “SPR binding activity, in words” value in series [3] (initial experiment, MCK mode from 10 μM) is recorded as “displayed binding activity with slow dissociation”. Further, in series [3] (summary statement of Example 1), the “activity (inhibitory effect on binding to SARS-COV-2 spike protein and ACE2)” value worked out at 82%. For the same molecule, the “viability normalized to SARS-COV-2 spike protein treatment alone and vehicle” value in series [1] is recorded as “over 80%”.
On to `O=C1C[C@@H](c2ccc(O)cc2)Oc2cc(O)cc(O)c21` [Naringenin, naringenin], for which, in series [2], the remaining activity at 100 µM turned out to be 57% and the IC50 was found to be 36.2 µM.
Regarding `C[C@@H]1O[C@@H](OC[C@H]2O[C@@H](Oc3c(-c4ccc(O)c(O)c4)oc4cc(O)cc(O)c4c3=O)[C@H](O)[C@@H](O)[C@@H]2O)[C@H](O)[C@H](O)[C@H]1O` [Rutin, rutin], in series [2], the remaining activity at 100 µM worked out at 44% and the IC50 worked out at 39.4 µM. In series [3] (SARS-COV2 RBD on SA chip), the “Activity (actual)” value is 21%, the “Activity (calculated)” value is 17%, the “Rmax (actual)” value turned out to be 21.0 RU and the “Rmax (calculated)” value is on record as 16.7 RU.

Values taken from US20250381207A1, “FLAVONOID-CONTAINING COMPOSITIONS AND TREATMENT OF VIRAL DISEASES WITH SAME” (priority 2024, published 2025).
